pIC50: −log10 of the molar value. Entries after “also recorded” stand apart in the source; their conditions may differ.
Columns and labels:
BFL-1/A1ΔC = BFL-1/A1ΔC (Homo sapiens (Human), UniProt Q16548); assay: Competitive fluorescence polarization binding assay, BFL-1/A1 (FITC-BID BH3); conditions: Table A
Text: FIG. 19A and FIG. 19B are graphs that show potent targeting of the anti-apoptotic protein BFL-1/A1 by MIM1. […] Thus, the complex between FITC-BID BH3 and BFL-1/A1ΔC was employed in a competitive FP assay to monitor the capacity of MIM1 to target BFL-1/A1ΔC.

MCL-1ΔNΔC = MCL-1ΔNΔC (Homo sapiens (Human), UniProt Q07820); assay: Competitive fluorescence polarization binding assay, MCL-1; conditions: Table A
Sequence of MCL-1ΔNΔC (Q07820 172-327, stated change not applied): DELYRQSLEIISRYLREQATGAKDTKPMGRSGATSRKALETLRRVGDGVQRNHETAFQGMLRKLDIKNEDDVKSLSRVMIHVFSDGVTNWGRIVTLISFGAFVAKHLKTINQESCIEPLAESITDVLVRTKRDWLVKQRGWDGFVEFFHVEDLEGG
Description: Here, we deployed MCL-1 SAHBA as a high fidelity screening tool to determine if its potency and specificity-of-action could be harnessed for small molecule discovery. […] A compilation of 71,296 small molecules was screened for the capacity to displace FITC-MCL-1 SAHBA from recombinant MCL-1ΔNΔC (aa 172-327) (FIG. 4).
Fluorescence polarization assays (FPA) were performed as previously described^38,39. […] Fluorescence polarization was measured at equilibrium and IC50 values calculated by nonlinear regression analysis of competitive binding curves using Prism software (Graphpad).

[1] = system: wild-type or Bax−/−Bak−/− MEFs; assay: Caspase 3/7 activation (Caspase-Glo), MEFs; type: cell-based, mouse; conditions: 8 h
Description: (§1) p185^+Arf^−/− and MCL-1 or BCL-XL-rescued p185^+Arf^−/−Mcl^−/− cells were maintained in RPMI 1640 (ATCC) supplemented with 10% (v/v) FBS, 100 U/mL penicillin, 100 μg/mL streptomycin, 0.1 mM MEM non-essential amino acids and 50 μM β-mercaptoethanol. Mouse embryonic fibroblasts (MEFs) cells were maintained in DMEM high glucose (Invitrogen) supplemented with 10% (v/v) FBS, 100 U/mL penicillin, 100 μg/mL streptomycin, 2 mM L-glutamine, 50 mM HEPES, 0.1 mM MEM non-essential amino acids and 50 μM β-mercaptoethanol. […] Cell viability was assayed at 24 h by addition of CellTiter-Glo reagent according to the manufacturer's protocol (Promega), and luminescence was measured using a SpectraMax M5 microplate reader (Molecular Devices). Caspase 3/7 activation was assayed at 8 h by addition of Caspase-Glo 3/7 reagent according to manufacturer's protocol (Promega), and luminescence measured using a SpectraMax M5 microplate reader. Viability and caspase assays were performed in duplicate, repeated at least twice with independent cell cultures, and the data normalized to vehicle-treated control wells.

BCL-XLΔC = BCL-XLΔC (Homo sapiens (Human), UniProt Q07817); assay: Competitive fluorescence polarization binding assay, BCL-XL; conditions: tracer FITC-BID BH3; read-out: IC50, displacement of FITC-BID BH3 from BCL-XLΔC
Sequence of BCL-XLΔC (Q07817 1-212): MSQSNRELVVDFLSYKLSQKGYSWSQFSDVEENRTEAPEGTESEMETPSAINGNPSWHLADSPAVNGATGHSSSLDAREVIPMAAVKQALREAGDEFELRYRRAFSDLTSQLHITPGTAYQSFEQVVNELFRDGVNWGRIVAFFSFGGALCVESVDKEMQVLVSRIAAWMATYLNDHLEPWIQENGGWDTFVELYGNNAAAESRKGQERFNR

[2] = system: wild-type or Bax−/−Bak−/− MEFs; assay: Cell viability (CellTiter-Glo), MEFs; type: cell-based, mouse; conditions: non-malignant fibroblasts, 24 h
Description: as §1

[3] = system: parental p185+Arf−/− CML cells; assay: Cell viability and CalcuSyn synergy, parental leukemia cells; type: cell-based, murine; conditions: Mus musculus; parental cells expressing both MCL-1 and BCL-XL; read-out: IC50, cytotoxicity
Description: as §1

[4] = system: MCL-1-rescued p185+Arf−/−Mcl-1−/− CML cells; assay: Cell viability (CellTiter-Glo), MCL-1-dependent leukemia cells; type: cell-based, murine; conditions: Mus musculus; MCL-1-dependent cells, 24 h
Text: A challenges in developing and applying molecular antagonists for BCL-2 family anti-apoptotic proteins is the variable expression of multiple homologues. That is, a cancer cell will only be susceptible to a selective anti-apoptotic inhibitor if the cell is especially dependent on that particular survival protein. […] To test MIM1's activity and specificity in cancer cells, we employed murine p185^+Arf^−/−Mcl-1^−/− chronic myelogenous leukemia (CML) cells that are unable to survive unless reconstituted with MCL-1, reflecting a stringent system for assessing MCL-1 dependence.
p185^+Arf^−/− and MCL-1 or BCL-XL-rescued p185^+Arf^−/−Mcl^−/− cells were maintained in RPMI 1640 (ATCC) supplemented with 10% (v/v) FBS, 100 U/mL penicillin, 100 μg/mL streptomycin, 0.1 mM MEM non-essential amino acids and 50 μM β-mercaptoethanol. […] Cell viability was assayed at 24 h by addition of CellTiter-Glo reagent according to the manufacturer's protocol (Promega), and luminescence was measured using a SpectraMax M5 microplate reader (Molecular Devices). Caspase 3/7 activation was assayed at 8 h by addition of Caspase-Glo 3/7 reagent according to manufacturer's protocol (Promega), and luminescence measured using a SpectraMax M5 microplate reader. […]

Sequence of BFL-1/A1ΔC (Q16548 1-153): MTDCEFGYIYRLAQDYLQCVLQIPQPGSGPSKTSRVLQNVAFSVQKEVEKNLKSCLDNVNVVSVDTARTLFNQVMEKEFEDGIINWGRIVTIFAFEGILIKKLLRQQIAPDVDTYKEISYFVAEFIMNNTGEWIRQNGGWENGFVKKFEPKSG

## CC(C)(C)c1cs/c(=N\C2CCCCC2)n1/N=C/c1cc(O)c(O)cc1O [183-87]
BFL-1/A1ΔC
  pIC50: 7.38
MCL-1ΔNΔC
  pIC50: 6.82

## Cc1cs/c(=N\C2CCCc3ccccc32)n1/N=C/c1cc(O)c(O)cc1O (stereo not drawn) [187-22]
BFL-1/A1ΔC
  pIC50: 6.84
MCL-1ΔNΔC
  pIC50: 5.85

## CC(C)(C)c1cs/c(=N\C2CCCCC2)n1/N=C/c1ccc(O)c(O)c1 [183-65]
BFL-1/A1ΔC
  pIC50: 5.68
MCL-1ΔNΔC
  pIC50: 4.75

## Cc1cs/c(=N\C2CCCCC2)n1/N=C/c1cc(O)c(O)c(O)c1 [183-84]
BFL-1/A1ΔC
  pIC50: 6.50
MCL-1ΔNΔC
  pIC50: 4.89

## CC(C)(C)c1cs/c(=N\C2CCCCC2)n1/N=C/c1cc(O)c(O)cc1F [187-10]
BFL-1/A1ΔC
  pIC50: 5.04

## Cc1cs/c(=N\C2CCCCC2)n1/N=C/c1cc(O)c(O)cc1F [187-8]
BFL-1/A1ΔC
  pIC50: 5.08

## Cc1cs/c(=N\C2CCCc3ccccc32)n1/N=C/c1ccc(O)c(O)c1O (stereo not drawn) [187-23]
BFL-1/A1ΔC
  pIC50: 5.96
MCL-1ΔNΔC
  pIC50: 5.36

## CC(C)(C)c1cs/c(=N\C2CCCCC2)n1/N=C/c1cc(O)c(O)c(O)c1 [183-88]
BFL-1/A1ΔC
  pIC50: 6.12
MCL-1ΔNΔC
  pIC50: 5.94

## CCc1cs/c(=N\C2CCCCC2)n1/N=C/c1ccc(O)c(O)c1O [178-82]
BFL-1/A1ΔC
  pIC50: 5.92
MCL-1ΔNΔC
  pIC50: 5.68

## CC(C)(C)c1cs/c(=N\C2CCCCC2)n1/N=C/c1ccc(O)c(O)c1O [183-44]
BFL-1/A1ΔC
  pIC50: 6.04
MCL-1ΔNΔC
  pIC50: 6.27

## Oc1ccc(/C=N/n2c(C3CC3)cs/c2=N\C2CCCC2)c(O)c1O [183-22]
BFL-1/A1ΔC
  pIC50: 6.22
MCL-1ΔNΔC
  pIC50: 5.62

## CC(C)C(C)/N=c1\scc(C(C)(C)C)n1/N=C/c1ccc(O)c(O)c1O (stereo not drawn) [187-27]
BFL-1/A1ΔC
  pIC50: 5.82
MCL-1ΔNΔC
  pIC50: 5.37

## Oc1ccc(/C=N/n2c(-c3cccs3)cs/c2=N\C2CCCCC2)c(O)c1O [183-76]
BFL-1/A1ΔC
  pIC50: 6.41
MCL-1ΔNΔC
  pIC50: 4.96

## Cc1s/c(=N\C2CCCCC2)n(/N=C/c2cc(O)c(O)cc2O)c1C1CC1 [187-44]
BFL-1/A1ΔC
  pIC50: 6.93
MCL-1ΔNΔC
  pIC50: 6.23

## COc1cc(/C=N/n2c(C)cs/c2=N\C2CCCCC2)cc(OC)c1OC [183-85]
MCL-1ΔNΔC
  pIC50: 5.12

## CC(C)C(C)/N=c1\scc(C2CC2)n1/N=C/c1cc(O)c(O)cc1O (stereo not drawn) [187-39]
BFL-1/A1ΔC
  pIC50: 5.96
MCL-1ΔNΔC
  pIC50: 5.14

## CC(C)C(C)/N=C1\SCC(Br)(C2CC2)N1/N=C/c1cc(O)c(O)cc1O (stereo not drawn) [187-19]
MCL-1ΔNΔC
  pIC50: 6.05

## Cc1cs/c(=N\C(C)C(C)C)n1/N=C/c1ccc(O)c(O)c1O (stereo not drawn) [187-20]
BFL-1/A1ΔC
  pIC50: 5.68
MCL-1ΔNΔC
  pIC50: 5.75

## CCOc1ccccc1/N=c1\scc(C)n1/N=C/c1ccc(O)c(O)c1O [183-24]
BFL-1/A1ΔC
  pIC50: 5.60
MCL-1ΔNΔC
  pIC50: 4.80

## Oc1ccc(/C=N/n2c(C3CC3)cs/c2=N\c2ccccc2)c(O)c1O [190-20]
BFL-1/A1ΔC
  pIC50: 6.44

## Oc1ccc(/C=N/N2/C(=N/C3CCCCC3)SCC2(O)C(F)(F)F)c(O)c1O (stereo not drawn) [183-51]
BFL-1/A1ΔC
  pIC50: 5.92
MCL-1ΔNΔC
  pIC50: 5.54

## CC(C)(C)Cc1cs/c(=N\C2CCCCC2)n1/N=C/c1ccc(O)c(O)c1O [183-70]
BFL-1/A1ΔC
  pIC50: 5.82
MCL-1ΔNΔC
  pIC50: 5.71

## Cc1cs/c(=N\C2CCCCC2)n1/N=C/c1ccc(O)c(O)c1 [183-38]
BFL-1/A1ΔC
  pIC50: 6.55
MCL-1ΔNΔC
  pIC50: 4.92

## Cc1s/c(=N\C2CCCCC2)n(/N=C/c2cc(O)c(O)cc2O)c1C [183-89]
BFL-1/A1ΔC
  pIC50: 6.24
MCL-1ΔNΔC
  pIC50: 6.11

## Oc1ccc(/C=N/n2c(C3CC3)cs/c2=N\C2CCCCC2)c(O)c1O [178-83]
BFL-1/A1ΔC
  pIC50: 6.11
MCL-1ΔNΔC
  pIC50: 6.04

## Oc1ccc(/C=N/n2c(C3CC3)cs/c2=N\c2ccccc2)cc1O [187-95]
BFL-1/A1ΔC
  pIC50: 5.52

## Oc1ccc(/C=N/n2c(C3CC3)cs/c2=N\c2ccccc2)c(O)c1O [183-21]
BFL-1/A1ΔC
  pIC50: 6.14
MCL-1ΔNΔC
  pIC50: 5.37

## Cc1cs/c(=N\C2CC3CCC2C3)n1/N=C/c1cc(O)c(O)cc1O (stereo not drawn) [183-82]
BFL-1/A1ΔC
  pIC50: 6.77
MCL-1ΔNΔC
  pIC50: 6.00

## COC(=O)Cc1cs/c(=N\C2CCCCC2)n1/N=C/c1ccc(O)c(O)c1O [178-97]
BFL-1/A1ΔC
  pIC50: 6.00
MCL-1ΔNΔC
  pIC50: 5.02

## COc1cc(/C=N/n2c(C(C)(C)C)cs/c2=N\C2CCCCC2)c(O)cc1O [190-4]
BFL-1/A1ΔC
  pIC50: 4.82

## Cc1cs/c(=N\C2CC3CCC2C3)n1/N=C/c1cc(O)c(O)cc1O (stereo not drawn) [187-79]
BFL-1/A1ΔC
  pIC50: 6.57
MCL-1ΔNΔC
  pIC50: 6.03

## Oc1ccc(/C=N/n2c3c(s/c2=N\C2CCCCC2)CCCC3)c(O)c1O [183-81]
BFL-1/A1ΔC
  pIC50: 5.89
MCL-1ΔNΔC
  pIC50: 5.35

## Cc1cs/c(=N\C2CCCCC2)n1/N=C/c1c(O)cc(O)cc1O [187-81]
BFL-1/A1ΔC
  pIC50: 4.51

## Oc1ccc(/C=N/n2c(-c3cccs3)cs/c2=N\c2ccccc2)c(O)c1O [190-18]
BFL-1/A1ΔC
  pIC50: 5.77

## Cc1cs/c(=N\c2ccccc2)n1/N=C/c1ccc(O)c(O)c1O [183-20]
BFL-1/A1ΔC
  pIC50: 6.58

## Cc1cs/c(=N\C2CCCCC2)n1/N=C/c1ccc(O)c(O)c1O [MIM1, 4-((E)-(((Z)-2-(cyclohexylimino)-4-methylthiazol-3(2H)-yl)imino)methyl)benzene-1,2,3-triol]
[1]
  caspase 3/7 activation: no observed caspase 3/7 activation
BCL-XLΔC
  pIC50: < 4.30
[2]
  effect on viability / toxicity: little to no toxicity; also recorded: no significant effect
[3]
  pIC50: 4.97
[4]
  pIC50: 5.38

## Cc1s/c(=N\C2CCN(C(=O)OC(C)(C)C)CC2)n(/N=C/c2ccc(O)c(O)c2O)c1C1CC1 [187-50]
BFL-1/A1ΔC
  pIC50: 6.13

## CCc1s/c(=N\C2CCCCC2)n(/N=C/c2ccc(O)c(O)c2O)c1C(C)(C)C [187-37]
BFL-1/A1ΔC
  pIC50: 5.55

## Oc1ccc(/C=N/NC(=S)NC2CCCCC2)c(O)c1O [178-72]
BFL-1/A1ΔC
  pIC50: 5.29
MCL-1ΔNΔC
  pIC50: 4.80

## Cc1cs/c(=N\CC2CCCCC2)n1/N=C/c1ccc(O)c(O)c1O [187-5]
BFL-1/A1ΔC
  pIC50: 5.96
MCL-1ΔNΔC
  pIC50: 5.57

## Cc1s/c(=N\C2CCCCC2)n(/N=C/c2ccc(O)c(O)c2O)c1C [183-8]
BFL-1/A1ΔC
  pIC50: 6.15
MCL-1ΔNΔC
  pIC50: 5.82

## CCOC(=O)c1s/c(=N\C2CCCCC2)n(/N=C/c2ccc(O)c(O)c2O)c1C [183-91]
BFL-1/A1ΔC
  pIC50: 6.42
MCL-1ΔNΔC
  pIC50: 4.93

## Oc1cc(O)c(/C=N/n2c(C3CC3)cs/c2=N\C2CCCCC2)cc1O [187-7]
BFL-1/A1ΔC
  pIC50: 7.59
MCL-1ΔNΔC
  pIC50: 6.91

## Cc1cs/c(=N\C2CCCC2)n1/N=C/c1ccc(O)c(O)c1O [183-19]
BFL-1/A1ΔC
  pIC50: 6.20
MCL-1ΔNΔC
  pIC50: 5.51

## Cc1cs/c(=N\c2ccccc2)n1/N=C/c1ccc(O)c(O)c1 [187-82]
BFL-1/A1ΔC
  pIC50: 5.09
MCL-1ΔNΔC
  pIC50: 4.88

Source: patent US9926306B2, “Inhibition of MCL-1 and/or BFL-1/A1” (Dana-Farber Cancer Institute, Inc., priority 2012, dated 2018)
